Source: US20220000807A1, “METHODS AND APPARATUS FOR TREATING A WOUND” (Chang Gung Memorial Hospital, Linkou, priority 2018, published 2022)

Assays:
[1] = system: back incisions of rats; assay: In vivo rat back incision wound healing study; settings: for microscopic changes of the 1 cm×1 cm back wound: Day 10, 10 days of drops twice a day (0.25% betaxolol, 0.5% Timoptol), FIG. 4A-4C
Experimental: An in vivo study was performed to examine the effectiveness of a non-selective β blocker and a β1-blocker using rats. The rats were divided into 3 groups: (a) control (n=2); (b) non-selective […] blocker (n=1); and (c) β1-blocker (n=1). On Day 0 of the experiment, 3 back incisions were made on each rat. The size of the back incisions are 1.5 cm×1.5 cm, 1 cm×1 cm and 0.5 cm×0.5 cm for the top, middle and bottom incisions as shown on FIG. 4A.
The rats in the control group received no treatment, the rat in the non-selective β blocker group received 0.5% Timoptol drop (MSD, USA) twice a day (30 μl for the top incision, 13 μl for the middle incision and 3.3 μl for the bottom incision) and the rat in the β1-blocker group received 0.25% Betoptic drop (Alcon Laboratories, USA) twice a day (30 μl for the top incision, 13 μl for the middle incision and 3.3 μl for the bottom incision).

[2] = system: severe, relapsing paronychia and pyogenic granuloma-like lesion on left thumb (induced by afatinib); assay: Topical treatment of a patient with afatinib-induced paronychia and pyogenic granuloma-like lesion; type: in vivo, human; settings: one patient; for improvement of paronychia and pyogenic granuloma-like lesion with previous topical treatment: previous treatment with all three agents, FIG. 1A
Excerpt: They were subsequently treated with topical 0.25% betaxolol drops once daily (Alcon Laboratories, USA) for 4 weeks under occlusion.

[3] = system: deep fissure over palms or soles induced by EGFR inhibitors; settings: 10 patients; topical 0.25% drops once a day; FIG. 2A, 2B
Experimental: 10 patients with deep fissure over palms or soles induced by EGFR inhibitors were treated with topical 0.25% betaxolol drops (Alcon Laboratories, USA) once a day.

Compound | microscopic changes of the 1 cm×1 cm back wound [1] | improvement of paronychia and pyogenic granuloma-like lesion with previous topical treatment [2] | also measured
CC(C)(C)NC[C@H](O)COc1nsnc1N1CCOCC1.O=C(O)/C=C\C(=O)O [Timoptol] | incompletely healing, characterized with incomplete re-epithelization of the epidermis, less fibroblast activity and evidence of debri |  | 
CCCCC(=O)O[C@]1(C(=O)CO)[C@@H](C)C[C@H]2[C@@H]3CCC4=CC(=O)C=C[C@]4(C)[C@@]3(F)[C@@H](O)C[C@@]21C [betamethasone valerate] |  | without any improvement | 
CC(C)NCC(O)COc1ccc(CCOCC2CC2)cc1 (centres unmarked) [betaxolol] | almost completely healed with re-growth of fibroblasts, complete re-epithelization of epidermis, and no evidence of debri |  | deep fissure wound healing [3]: healed within one week of treatment in all of the 10 patients; resolution of paronychia and pyogenic granuloma-like lesion ([2]; topical 0.25% drops once daily for 4 weeks under occlusion, FIG. 1B): complete resolution of paronychia and pyogenic granuloma-like lesion; appearance of back incisions (erythema, size) ([1]; 0.25% drop twice a day, after 7 days of treatment, compared to 0.5% Timoptol drops and no treatment, FIG. 3C-3E): less erythematous and smaller in size
O=[N+]([O-])[O-].[Ag+] [silver nitrate] |  | without any improvement | 
gentamicin sulfate |  | without any improvement | 
